Assay results: patent publication US7157472B2, “Neuropeptide Y Y5 receptor antagonists” (Schering Corporation, priority 2002, dated 2007)
pKi: −log10 of the molar value.

Each molecule was assayed against T1, Human NPY Y5 receptors (Homo sapiens, UniProt Q15761) (assay: NPY Receptor Binding Assay). Settings: binding affinity at the human neuropeptide Y Y5 receptor subtype (hY5), expressed in CHO cells, 125I-peptide YY.
T1 construct: expressed in transfected cells; host or cells: CHO cells (membrane protein)
T1 sequence (Q15761 1-445): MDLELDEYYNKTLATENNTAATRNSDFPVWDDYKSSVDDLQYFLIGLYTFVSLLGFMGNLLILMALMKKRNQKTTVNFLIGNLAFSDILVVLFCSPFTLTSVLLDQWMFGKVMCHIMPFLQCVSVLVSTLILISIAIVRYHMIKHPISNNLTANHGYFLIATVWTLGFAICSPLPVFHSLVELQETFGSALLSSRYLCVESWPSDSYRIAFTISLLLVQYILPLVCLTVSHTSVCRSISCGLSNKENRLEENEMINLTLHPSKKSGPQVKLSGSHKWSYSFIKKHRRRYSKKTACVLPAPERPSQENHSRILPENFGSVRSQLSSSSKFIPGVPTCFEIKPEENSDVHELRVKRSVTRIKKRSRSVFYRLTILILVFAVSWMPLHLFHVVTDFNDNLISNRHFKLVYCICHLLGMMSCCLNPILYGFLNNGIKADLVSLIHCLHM
Method: NPY Receptor Binding Assay
Human NPY Y5 receptors were expressed in CHO cells. Binding assays were performed in 50 mM HEPES, pH 7.2, 2.5 mM CaCl2, 1 mM MgCl2 and 0.1% BSA containing 5–10 μg of membrane protein and 0.1 nM […] in a total volume of 200 μl. Non-specific binding was determined in the presence of 1 μM NPY. The reaction mixtures were incubated for 90 minutes at room temperature then filtered through Millipore MAFC glass fiber filter plates which had been pre-soaked in 0.5% polyethleneimine. The filters were washed with phosphate-buffered saline, and radioactivity was measured in a Packard TopCount scintillation counter.
CN(C(=O)Nc1cnn(-c2cc(F)cc(F)c2)c1)C1CCN(S(C)(=O)=O)CC1 was tested, and the pKi was 8.62. Molecule CN(C(=O)Nc1cnn(-c2cc(F)cc(F)c2)c1)C1CCN(C(=O)OC(C)(C)C)CC1 has a pKi of 8.74. For CCC(=O)N1CCC(N(C)C(=O)Nc2cnn(-c3cc(F)cc(F)c3)c2)CC1, the pKi was 9.02. CC(=O)N1CCC(N(C)C(=O)Nc2cnn(-c3cc(F)cc(F)c3)c2)CC1 gave a pKi of 8.80. In the case of CC(C)C(=O)N1CCC(N(C)C(=O)Nc2cnn(-c3cc(F)cc(F)c3)c2)CC1, the pKi was 9.15. In the case of CN(C(=O)Nc1cnn(-c2cc(F)cc(F)c2)c1)C1CCNCC1, the pKi was 6.56. CC(C)S(=O)(=O)N1CCC(N(C)C(=O)Nc2cnn(-c3cc(F)cc(F)c3)c2)CC1 gave a pKi of 8.77. Molecule CN(C(=O)Nc1cnn(-c2cc(F)cc(F)c2)c1)C1CCN(C(=O)C2CC2)CC1 has a pKi of 8.92. Work on CCS(=O)(=O)N1CCC(N(C)C(=O)Nc2cnn(-c3cc(F)cc(F)c3)c2)CC1 yielded a pKi of 9.05.
